Test system: beta-defensin 2 (human β-defensin 2, hBD-2)
Experiment: beta-defensin 2 synthesis ELISA in cortisol-treated HaCaT cells
Assay type: cell-based
Set-up: change of beta-defensin 2 in skin cells: dose or concentration left out as unconfirmed
Settings: for enhancement efficacy (beta-defensin 2 synthesis): single treatment at 1 ppm
Experimental: First, HaCaT, which is a human epidermal cell of the outermost layer among skin cells, was cultured using Dulbecco's Modified Eagle's Media (DMEM; Gibco, USA) mixed with 10% fetal bovine serum (FBS; Gibco, USA) and 1% antibiotic antimycotic (Gibco, USA) in a 24-well plate under conditions of 37° C. and 5% CO2. […] […] After 24 hours, the cells were treated with curcumin, taurine, and acetyl hexapeptide-8 at experimental concentrations, and cultured for 24 hours. At this time, curcumin, taurine, and acetyl hexapeptide-8 were treated alone, and the concentration of curcumin was fixed at 0.1 ppm and 1 ppm, and then taurine and acetyl hexapeptide-8 were treated in combination of concentrations, and cultured for 24 hours. 24 hours after treatment with each sample, ELISA was performed to quantify the amount of beta-defensin 2 (human β-defensin 2, hBD-2) protein synthesis. ELISA was performed using the HUMAN BETA DEFENSIN 2 ELISA kit (ALPHA DIAGNOSTIC, USA) and using the cell culture medium according to the kit's manual, and the final protein amount was calculated by measuring absorbance at 400 nm. […] At this time, when the amount thereof increased compared to the decrease due to cortisol, it was interpreted that the synthesis of beta-defensin 2 was increased by the sample. In addition, the synergistic effect between respective active substances that enhance beta-defensin 2 which had been reduced by cortisol was predicted through the Colby formula, and when the actual measured value was greater than the predicted value, it was determined that there was the synergistic effect.

[1] = Table 4: each substance at 1 ppm, alone or three cotreated, Cortisol (5 μM) = 100
[2] = single treatment 0.01 ppm, 24 h, HaCaT, cortisol group = 100
[3] = single treatment 0.1 ppm, 24 h, HaCaT, cortisol group = 100
[4] = single treatment 1 ppm, 24 h, HaCaT, cortisol group = 100

Compound	Production amount of beta-defensin 2 (%) [1] [%]	Production amount of beta-defensin 2 (%) [2] [%]	Production amount of beta-defensin 2 (%) [3] [%]	Production amount of beta-defensin 2 (%) [4] [%]	enhancement efficacy (beta-defensin 2 synthesis)	Production amount of beta-defensin 2 (%) (single treatment 5 ppm, 24 h, HaCaT, cortisol group = 100)	Production amount of beta-defensin 2 (%) (single treatment 10 ppm, 24 h, HaCaT, cortisol group = 100)	change of beta-defensin 2 in skin cells (HaCaT, cultured for 24 hours)
COc1cc(/C=C/C(=O)CC(=O)/C=C/c2ccc(O)c(OC)c2)ccc1O [Curcumin, curcumin]	106.82	96.65	97.92	106.82	confirmed			
NCCS(=O)(=O)O [Taurine, 2-aminoethanesulfonic acid]	117.6	100.60	99.90	117.60	confirmed	87.61	83.06	
C[C@]12CCC(=O)C=C1CC[C@@H]1[C@@H]2[C@@H](O)C[C@@]2(C)[C@H]1CC[C@]2(O)C(=O)CO [cortisol, hydrocortisone, reference compound]								significantly reduced
